Reference: patent US8741892B2, “Compounds” (Boehringer Ingelheim International GmbH, priority 2011, dated 2014)

Target: T1, human recombinant mGluR5 (Homo sapiens, UniProt P41594)
T1 construct: expressed in transfected cells; host or cells: HEK 293
Test: positive modulation of mGluR5, calcium based FLIPR assay
Conditions: HEK 293 cell line expressing human recombinant mGluR5; EC50 of the modulation from peak Ca fluorescence signal after glutamate at approx. 5% basal stimulation
Summary of the method: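 HEK 293 cells expressing human recombinant mGluR5, Calcium-4 dye-loaded in Ringer solution pH 7.4. Compound (1% DMSO final) preincubated 5 min, then glutamate at ~5% of maximal effect added; peak Ca2+ fluorescence gives EC50 by nonlinear regression, normalized to DMSO (100%) and 10 μM CDPPB (200%) controls.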

T1 sequence (P41594 21-1212): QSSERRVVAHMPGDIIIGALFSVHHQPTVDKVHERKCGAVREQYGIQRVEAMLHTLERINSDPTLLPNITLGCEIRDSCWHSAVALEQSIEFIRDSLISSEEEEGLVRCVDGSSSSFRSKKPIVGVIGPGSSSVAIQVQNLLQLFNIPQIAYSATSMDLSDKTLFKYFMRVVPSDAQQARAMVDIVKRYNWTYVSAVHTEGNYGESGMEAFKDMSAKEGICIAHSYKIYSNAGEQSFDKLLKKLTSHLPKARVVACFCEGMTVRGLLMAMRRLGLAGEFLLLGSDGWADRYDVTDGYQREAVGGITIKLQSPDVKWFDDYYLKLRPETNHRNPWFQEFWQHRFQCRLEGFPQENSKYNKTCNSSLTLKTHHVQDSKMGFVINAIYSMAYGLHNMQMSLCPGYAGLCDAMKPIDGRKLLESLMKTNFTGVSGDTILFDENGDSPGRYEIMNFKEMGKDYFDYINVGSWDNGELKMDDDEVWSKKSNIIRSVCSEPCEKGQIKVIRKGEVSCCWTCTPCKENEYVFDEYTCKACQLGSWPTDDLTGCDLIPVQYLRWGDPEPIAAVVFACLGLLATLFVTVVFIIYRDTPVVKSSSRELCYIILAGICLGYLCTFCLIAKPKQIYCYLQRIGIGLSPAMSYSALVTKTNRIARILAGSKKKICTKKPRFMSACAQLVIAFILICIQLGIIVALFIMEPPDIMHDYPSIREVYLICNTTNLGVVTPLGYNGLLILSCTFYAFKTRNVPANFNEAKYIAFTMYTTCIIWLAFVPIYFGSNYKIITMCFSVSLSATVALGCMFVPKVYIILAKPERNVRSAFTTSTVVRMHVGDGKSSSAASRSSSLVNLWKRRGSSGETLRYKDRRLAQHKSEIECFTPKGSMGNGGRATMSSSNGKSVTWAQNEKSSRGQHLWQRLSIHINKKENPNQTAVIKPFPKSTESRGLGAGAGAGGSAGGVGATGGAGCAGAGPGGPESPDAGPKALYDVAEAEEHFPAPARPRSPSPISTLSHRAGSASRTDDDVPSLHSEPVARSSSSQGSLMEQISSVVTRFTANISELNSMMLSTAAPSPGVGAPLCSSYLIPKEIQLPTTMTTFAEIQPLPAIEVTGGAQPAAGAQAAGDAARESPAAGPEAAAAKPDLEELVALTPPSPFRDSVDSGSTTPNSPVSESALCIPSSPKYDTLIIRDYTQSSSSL

| Compound | EC50 [nM] |
| --- | --- |
| COC(=O)c1ccc2c(c1)CCN(C(=O)Cn1nc(-c3ccc(F)c(C)c3)cc1-c1ccccc1)CC2 [Example 7.01.088] | 29 |
| CC(C)NC(=O)Nc1nc2c(s1)CN(C(=O)Cn1nc(-c3ccccc3)cc1-c1ccccc1)CC2 [Example 7.01.028] | 1300 |
| Cc1cnc(C2=CCN(C(=O)Cn3nc(-c4cccc(C#N)c4)cc3-c3ccccc3)CC2)o1 [Example 7.02.188] | 19 |
| COc1cc(-c2cc(-c3ccccc3)n(CC(=O)N3CC=C(c4ncc(C)o4)CC3)n2)ccc1F [Example 7.02.153] | 15 |
| COc1ccc2c(c1)CCN(C(=O)Cn1nc(-c3ccccc3)cc1-c1ccccc1)C2 [Example 7.01.018] | 538 |
| O=C(Cn1nc(-c2ccccc2)cc1-c1ccccc1)N1CCN(c2ccccc2)C(=O)C1 [Example 7.02.003] | 925 |
| COc1cc2c(cc1OC)CCN(C(=O)Cn1nc(-c3ccc(F)c(C)c3)cc1-c1ccccc1)CC2 [Example 7.01.079] | 447 |
| Cc1cccc(-c2cc(-c3ccccc3)n(CC(=O)N3CCc4nc(N)sc4CC3)n2)c1 [Example 7.02.199] | 16 |
| COc1ccc(-c2cc(C(C)C)n(CC(=O)N3Cc4ccc(OC)cc4C3)n2)cc1 [Example 7.02.040] | 1700 |
| N#Cc1ccc2c(c1)CCN(C(=O)Cn1nc(-c3ccccc3)cc1-c1ccccc1)C2 [Example 7.01.046] | 1000 |
| O=C(Cn1nc(-c2ccccc2)cc1-c1ccccc1)N1CCN(c2nc3ccccc3o2)CC1 [Example 7.02.009] | 220 |
| CCNC(=O)Nc1nc2c(s1)CN(C(=O)Cn1nc(-c3ccccc3)cc1-c1ccccc1)CC2 [Example 7.01.041] | 1550 |
| COc1cc(C2CCN(C(=O)Cn3nc(-c4ccc(C)c(C)c4)cc3-c3ccccc3)CC2)ncn1 [Example 7.02.091] | 115 |
| COc1cccc(N2CCN(C(=O)Cn3nc(-c4ccccc4)cc3-c3ccccc3)CC2=O)c1 [Example 7.01.035] | 205 |
| Cc1nc2c(o1)CN(C(=O)Cn1nc(-c3ccccc3)cc1-c1ccccc1)CC2 [Example 7.01.002] | 592 |
| O=C(Cn1nc(-c2ccccc2)cc1-c1ccccc1)N1CCC(c2noc3ccccc23)CC1 [Example 7.02.007] | 600 |

| Compound | EC50 [nM] |
| --- | --- |
| Cc1nnc(N2CCN(C(=O)Cn3nc(-c4ccc(F)c(C)n4)cc3-c3ccccc3)CC2)o1 [Example 7.02.179] | 236 |
| COc1cccc(N2CCN(C(=O)Cn3nc(-c4ccc(F)cc4)cc3-c3ccc(F)cc3)CC2=O)c1 [Example 7.02.012] | 47 |
| Cc1cnc(-c2cc(-c3ccccc3)n(CC(=O)N3CCc4nc(N)sc4CC3)n2)cc1C [Example 7.02.127] | 200 |
| O=C(Cn1nc(-c2ccccc2)cc1-c1ccccc1)N1CCN(c2nnc(C(F)(F)F)s2)CC1 [Example 7.01.042] | 285 |
| O=C(Cn1nc(-c2ccccc2)cc1-c1ccccc1)N1CCC(c2nccs2)CC1 [Example 7.01.044] | 1850 |
| Cc1cc(-c2cc(-c3ccccc3)n(CC(=O)N3CCC(C)(c4nnc(C(C)C)o4)CC3)n2)ccc1F [Example 7.02.018] | 693 |
| COc1cccc(N2CCN(C(=O)Cn3nc(-c4ccccc4)cc3-c3ccccc3)CC2=O)c1 [Example 7.01.020] | 258 |
| Cc1nnc(C2CCN(C(=O)Cn3nc(-c4cccc(C#N)c4)cc3-c3ccccc3)CC2)o1 [Example 7.02.193] | 290 |
| O=C(Cn1nc(-c2ccccc2)cc1-c1ccccc1)N1CCc2nc(-c3ccccc3)nc(O)c2C1 [Example 7.02.002] | 1170 |
| Cc1nc2c(s1)CCN(C(=O)Cn1nc(-c3ccc(OC(F)F)cn3)cc1-c1ccccc1)CC2 [Example 7.02.236] | 69 |
| Cc1cc(-c2cc(-c3ccccc3)n(CC(=O)N3CCN(c4nccs4)CC3)n2)ccc1F [Example 7.02.216] | 6 |
| COc1cccc(-c2cc(C3CCCCC3)n(CC(=O)N3CCc4nc(N)sc4CC3)n2)c1 [Example 7.02.052] | 297 |
| COc1cccc(N2CCN(C(=O)Cn3nc(-c4cc(C)c(C)cn4)cc3-c3ccccc3)CC2=O)c1 [Example 7.02.064] | 177 |
| COc1cc(-c2cc(-c3ccccc3)n(CC(=O)N3CCC(c4nnc(C)o4)CC3)n2)ccc1F [Example 7.02.151] | 211 |
| COc1ccccc1N1CCN(C(=O)Cn2nc(-c3ccccc3)cc2-c2ccccc2)CC1=O [Example 7.01.011] | 1970 |
| Cc1nnc(N2CCN(C(=O)Cn3nc(-c4cc(C)c(F)cn4)cc3-c3ccccc3)CC2)o1 [Example 7.02.180] | 1070 |

Further lines, results first:

| EC50 [nM] | Compound |
| --- | --- |
| 290 | CCc1cc(-c2ccc(F)c(C)c2)nn1CC(=O)N1CCN(c2nnc(C)o2)CC1 [Example 7.02.220] |
| 6 | Cc1cccc(-c2cc(-c3ccccc3)n(CC(=O)N3CCc4nc(C)sc4CC3)n2)c1 [Example 7.02.198] |
| 10 | Cc1nc2c(s1)CCN(C(=O)Cn1nc(-c3ccc(C(F)F)cc3)cc1-c1ccccc1)CC2 [Example 7.02.259] |
| 321 | CCc1cc(-c2cccc(C)c2)nn1CC(=O)N1Cc2nc(C)sc2C1 [Example 7.02.080] |
| 221 | COc1ccc(-c2cc(C(C)C)n(CC(=O)N3CCc4nc(C)sc4CC3)n2)cc1C [Example 7.02.047] |
| 9 | CCCc1cc(-c2ccc(F)c(C)c2)nn1CC(=O)N1CCc2nc(C)oc2CC1 [Example 7.02.215] |
| 157 | CNc1nc2c(s1)CCN(C(=O)Cn1nc(-c3ccc(F)c(C)c3)cc1C1CCCCC1)CC2 [Example 7.02.049] |
| 21 | Cc1ccc(-c2cc(-c3ccccc3)n(CC(=O)N3CCc4nc(C)sc4CC3)n2)nc1 [Example 7.02.116] |
| 153 | CCc1cc(-c2ccc(F)c(C)c2)nn1CC(=O)N1CCc2cc(-c3ccccc3)nnc2CC1 [Example 7.01.066] |
| 13 | Cc1nc2c(s1)CCN(C(=O)Cn1nc(-c3ccc(F)cc3)cc1-c1ccc(F)cc1)CC2 [Example 7.02.010] |
| 334 | CCc1cc(-c2cccc(Cl)c2)nn1CC(=O)N1Cc2nc(C)sc2C1 [Example 7.02.111] |
| 18 | Cc1coc(N2CCN(C(=O)Cn3nc(-c4ccc(F)c(C)c4)cc3-c3ccccc3)CC2)n1 [Example 7.02.165] |
| 842 | CCc1cc(-c2ccc(C)c(F)c2)nn1CC(=O)N1Cc2nc(C)sc2C1 [Example 7.02.239] |
| 34 | Cc1nc2c(s1)CCN(C(=O)Cn1nc(-c3ccc(C)c(F)c3)cc1-c1ccccc1)CC2 [Example 7.02.251] |
| 359 | Cc1nc2c(s1)CN(C(=O)Cn1nc(-c3ccccc3)cc1-c1ccccc1)C2 [Example 7.01.038] |
| 156 | CCc1cc(-c2cccc(Cl)c2)nn1CC(=O)N1CCc2nc(N)sc2CC1 [Example 7.02.110] |
| 199 | CCCc1cc(-c2ccc(F)c(C)c2)nn1CC(=O)N1CCC(c2cc(OC)ncn2)CC1 [Example 7.02.068] |
| 24 | Cc1cccc(-c2cc(-c3ccccc3)n(CC(=O)N3Cc4nc(C)sc4C3)n2)c1 [Example 7.02.200] |
| 36 | CCCc1cc(-c2ccc(F)c(C)c2)nn1CC(=O)N1CCC(c2ncc(C)o2)CC1 [Example 7.02.208] |
| 637 | CCc1cc(-c2cccc(Cl)c2)nn1CC(=O)N1CCC(c2nnc(C)o2)CC1 [Example 7.02.113] |
| 187 | CCCc1cc(-c2ccc(F)c(C)c2)nn1CC(=O)N1CCC(c2ncc(OC)cn2)CC1 [Example 7.02.069] |

| EC50 [nM] | Compound |
| --- | --- |
| 210 | COc1ccc(-c2cc(C(C)C)n(CC(=O)N3CCc4nc(N)sc4CC3)n2)cc1 [Example 7.02.038] |
| 412 | CCc1cc(-c2ccc(F)c(C)c2)nn1CC(=O)N1CCc2ccsc2C1 [Example 7.01.076] |
| 290 | CCCc1cc(-c2ccc(F)c(C)n2)nn1CC(=O)N1Cc2nc(C)sc2C1 [Example 7.02.248] |
| 192 | COc1ccc(-c2cc(C(C)C)n(CC(=O)N3CCc4nc(N)sc4CC3)n2)cc1 [Example 7.02.042] |
| 330 | CCc1cc(-c2cccc(C#N)c2)nn1CC(=O)N1CCC(c2ncc(C)o2)CC1 [Example 7.02.183] |
| 20 | Cc1noc(N2CCN(C(=O)Cn3nc(-c4ccc(F)c(C)c4)cc3-c3ccccc3)CC2)n1 [Example 7.02.169] |
| 245 | Cc1nc2c(s1)CCN(C(=O)Cn1nc(-c3ccc(F)cn3)cc1-c1ccccc1)CC2 [Example 7.02.056] |
| 318 | CCc1cc(-c2ccc(C)c(C)c2)nn1CC(=O)N1Cc2nc(C)sc2C1 [Example 7.02.075] |
| 245 | CCc1cc(-c2ccc(F)c(C)c2)nn1CC(=O)N1CCc2ccc(N)cc2CC1 [Example 7.01.072] |
| 10 | Cc1cc(C2=CCN(C(=O)Cn3nc(-c4ccc(F)c(C)c4)cc3-c3ccccc3)CC2)ncn1 [Example 7.02.096] |
| 184 | CCCc1cc(-c2ccc(F)c(C)n2)nn1CC(=O)N1Cc2nc(C)oc2C1 [Example 7.02.249] |
| 68 | Cc1nc2c(s1)CCN(C(=O)Cn1nc(-c3cc(C)c(C)cn3)cc1-c1ccccc1)CC2 [Example 7.02.126] |
| 221 | Cc1nc2c(s1)CN(C(=O)Cn1nc(-c3cc(C)c(F)cn3)cc1-c1ccccc1)C2 [Example 7.02.176] |
| 31 | Cc1cc(-c2cc(-c3ccccc3)n(CC(=O)N3Cc4cccnc4C3)n2)ccc1F [Example 7.02.229] |
| 64 | Cc1nc2c(s1)CN(C(=O)Cn1nc(-c3ccc(F)c(C)n3)cc1-c1ccccc1)C2 [Example 7.02.172] |
| 35 | Cc1cc(-c2cc(-c3ccccc3)n(CC(=O)N3CCc4nc(N)sc4C3)n2)ccc1F [Example 7.01.093] |
| 101 | Cc1cc(-c2cc(C)n(CC(=O)N3CCc4nc(N)sc4CC3)n2)ccc1F [Example 7.01.060] |
| 194 | CNc1nc2c(s1)CCN(C(=O)Cn1nc(-c3ccc(F)c(C)c3)cc1C1CC1)CC2 [Example 7.02.037] |
| 8 | Cc1nc2c(o1)CN(C(=O)Cn1nc(-c3ccc(F)c(C)c3)cc1-c1ccccc1)CC2 [Example 7.02.097] |
| 251 | Cc1nc2c(s1)CCN(C(=O)Cn1nc(-c3ccc(F)cc3)cc1C(C)C)CC2 [Example 7.02.072] |
